Assay results reported in patent publication US20190192548A1, “USE OF CYCLIC PHOSPHATE SUBSTITUTED NUCLEOSIDE DERIVATIVESFOR THE TREATMENT OF VIRAL DISEASES” (MERCK SHARP & DOHME CORP., priority 2016, published 2019).
Where two headings read alike, the source gives them in different places.

Assays:
replicon cells (1b-Con1) = experiment: Replicon activity assay (cell-based anti-HCV activity, replicon RNA by real-time RT-PCR)
Method: To measure cell-based anti-HCV activity of the compounds of the present invention, replicon cells (1b-Con1) are seeded at 5000 cells/well in 96-well plates one day prior to treatment with a compound of the invention. Various concentrations of a test compound of the invention in DMSO are then added to the replicon cells, with the final concentration of
(§1) DMSO at 0.5% and fetal bovine serum at 10% in the assay media. Cells are harvested three days post-dosing, and the replicon RNA level is determined using real-time RT-PCR (Taqman assay) with GAPDH RNA as endogenous control. EC50 values are calculated from experiments with 10 serial twofold dilutions of the inhibitor in triplicate. To measure cytotoxicity in replicon cells of an inhibitor, an MTS assay is performed according to the manufacturer's protocol for CellTiter 96 Aqueous One Solution Cell Proliferation Assay (Promega, Cat # G3580) three days post dosing on cells treated identically as in replicon activity assays. […] Cytotoxicity in other types of cells may be measured using the same MTS protocol.
(§2) Data were obtained using this method for selected compounds of the present invention, and are set forth below in Table 1.

[1] = Cytotoxicity assay in replicon cells (MTS, CellTiter 96); format: cell-based; conditions: three days post dosing, read-out: CC50 (EDU) Range
Method: as §1, §2

replicon cells = experiment: as above; format: cell-based; conditions: three days post dosing, read-out: CC50 (EDU) Range
Method: as §1, §2

[2] = Hepatitis C virus, 72 h, read-out: EC50 (1b) Range, replicon cells (1b-Con1), replicon RNA level three days post-dosing, GAPDH RNA as control
[3] = read-out: EC50 (1b) Range, replicon cells (1b-Con1), replicon RNA level three days post-dosing, GAPDH RNA as control

Row | Structure (SMILES) | EC50 (replicon cells (1b-Con1); [2]) [µM] | CC50 at 3 days [1] [µM] | EC50 (replicon cells (1b-Con1); [3]) [µM] | CC50 (replicon cells) [µM]
1 | CCOC(=O)[C@H](C)CCOP1(=O)OC[C@H]2O[C@@H](n3ccc(N)nc3=O)C(F)(F)[C@@H]2O1 (single isomer, unassigned) [Compound 10 Diastereomer 1] | 0.25 to 1 | ≤ 50 |  | 
2 | CCOC(=O)[C@@H](C)CCOP1(=O)OC[C@H]2O[C@@H](n3ccc(N)nc3=O)C(F)(F)[C@@H]2O1 (single isomer, unassigned) [Compound 9 Diastereomer 2] |  |  | 0.25 to 1 | ≤ 50
3 | CCOC(=O)[C@H](C)CCOP1(=O)OC[C@H]2O[C@@H](n3ccc(N)nc3=O)C(F)(F)[C@@H]2O1 (single isomer, unassigned) [Compound 10 Diastereomer 2] |  |  | 0.25 to 1 | ≤ 50
4 | CC(C)OC(=O)[C@@H](C)CCOP1(=O)OC[C@H]2O[C@@H](n3ccc(N)nc3=O)C(F)(F)[C@@H]2O1 (single isomer, unassigned) [Compound 8 Diastereomer 1] | 0.25 to 1 | ≤ 50 |  | 
5 | CC(C)OC(=O)[C@@H](C)CCOP1(=O)OC[C@H]2O[C@@H](n3ccc(N)nc3=O)C(F)(F)[C@@H]2O1 (single isomer, unassigned) [Compound 8 Diastereomer 2] |  |  | 0.25 to 1 | ≤ 50
6 | CCOC(=O)[C@@H](C)CCOP1(=O)OC[C@H]2O[C@@H](n3ccc(N)nc3=O)C(F)(F)[C@@H]2O1 (single isomer, unassigned) [Compound 9 Diastereomer 1] | 0.25 to 1 | ≤ 50 |  | 
7 | CC(C)OC(=O)[C@H](C)CCOP1(=O)OC[C@H]2O[C@@H](n3ccc(N)nc3=O)C(F)(F)[C@@H]2O1 (single isomer, unassigned) [Compound 7 Diastereomer 1] | 0.25 to 1 | ≤ 50 |  | 
8 | CC(C)OC(=O)[C@H](C)CCOP1(=O)OC[C@H]2O[C@@H](n3ccc(N)nc3=O)C(F)(F)[C@@H]2O1 (single isomer, unassigned) [Compound 7 Diastereomer 2] |  |  | < 0.25 | ≤ 50
